Like-named read-outs stand apart in the source and are kept apart here.
Target: GPR84 (Mus musculus, UniProt Q8CIM5)
Test: cAMP inhibition assay in Dox-inducible mouse GPR84 HEK293 cells, with Dox-uninduced controls
Format: cell-based

Sequence of GPR84 (Q8CIM5 whole entry): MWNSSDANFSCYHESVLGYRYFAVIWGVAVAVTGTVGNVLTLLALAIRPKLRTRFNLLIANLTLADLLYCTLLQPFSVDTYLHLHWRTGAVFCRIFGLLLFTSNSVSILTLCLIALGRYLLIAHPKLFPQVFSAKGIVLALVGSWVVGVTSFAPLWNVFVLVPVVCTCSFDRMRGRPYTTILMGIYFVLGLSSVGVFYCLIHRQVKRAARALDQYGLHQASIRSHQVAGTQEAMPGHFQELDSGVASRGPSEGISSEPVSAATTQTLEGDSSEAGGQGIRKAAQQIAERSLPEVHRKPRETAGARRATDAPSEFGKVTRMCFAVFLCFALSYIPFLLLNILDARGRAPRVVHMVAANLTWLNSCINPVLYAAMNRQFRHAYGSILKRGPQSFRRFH

Row | SMILES | EC50 (read-out: EC50) [µM] | EC50 [µM]
1 | CCCCCCCCCCCC(=O)O [C12:0] | 4.4 | –
2 | CCCCCCCCCC(=O)O [C10:0, capric acid] | – | 3.5
